What was measured:
[1] = Metabolic stability in CD-1 mouse intestinal S9 fraction assessed as half life measured at 3 uM after 2 hrs in absence of NADPH by UPLC-MS/MS analysis; format: ADME, subcellular, Intestine; conditions: s9, 2 h
[2] = Metabolic stability in Sprague-Dawley rat intestinal S9 fraction assessed as half life at 3 uM measured after 2 hrs in presence of NADPH by UPLC-MS/MS analysis; format: ADME, subcellular, Intestine; conditions: s9, 2 h
[3] = Metabolic stability in Cynomolgus monkey intestinal S9 fraction assessed as half life at 3 uM measured after 2 hrs in presence of NADPH by UPLC-MS/MS analysis; format: ADME, subcellular, Macaca fascicularis, Intestine; conditions: s9, 2 h
[4] = Metabolic stability in Beagle dog liver S9 fraction assessed as half life at 3 uM measured after 2 hrs in absence of NADPH by UPLC-MS/MS analysis; format: ADME, subcellular, Canis lupus familiaris; conditions: s9, 2 h
[5] = Metabolic stability in Beagle dog plasma assessed as half life at 3 uM measured after 2 hrs by UPLC-MS/MS analysis; format: ADME, cell-free, Canis lupus familiaris
[6] = Drug metabolism in mouse hepatocytes assessed as (R)-2-hydroxy-3-propionamido-3,4-dihydro-2H-benzo[e][1,2]oxaborinine-8-carboxylic acid formation at 2 to 20 uM incubated for 240 mins by UPLC-HR-MS/MS analysis; format: ADME, cell-based, Hepatocyte; conditions: 4 h, dose 2-20 µM
[7] = Drug metabolism in Cynomolgus monkey hepatocytes assessed as (R)-2-hydroxy-3-propionamido-3,4-dihydro-2H-benzo[e][1,2]oxaborinine-8-carboxylic acid formation at 2 to 20 uM incubated for 240 mins by UPLC-HR-MS/MS analysis; format: ADME, cell-based, Macaca fascicularis, Hepatocyte; conditions: 4 h, dose 2-20 µM
[8] = Metabolic stability in Cynomolgus monkey plasma assessed as half life at 3 uM measured after 2 hrs by UPLC-MS/MS analysis; format: ADME, cell-free, Macaca fascicularis
[9] = Metabolic stability in human liver S9 fraction assessed as half life at 3 uM measured after 2 hrs in presence of NADPH by UPLC-MS/MS analysis; format: ADME, subcellular; conditions: s9, 2 h
[10] = Metabolic stability in Sprague-Dawley rat intestinal S9 fraction assessed as half life at 3 uM measured after 2 hrs in absence of NADPH by UPLC-MS/MS analysis; format: ADME, subcellular, Intestine; conditions: s9, 2 h
[11] = Metabolic stability in CD-1 mouse liver S9 fraction assessed as half life measured at 3 uM after 2 hrs in presence of NADPH by UPLC-MS/MS analysis; format: ADME, subcellular; conditions: s9, 2 h
[12] = Drug metabolism in human hepatocytes assessed as (R)-2-hydroxy-3-propionamido-3,4-dihydro-2H-benzo[e][1,2]oxaborinine-8-carboxylic acid formation at 2 to 20 uM incubated for 240 mins by UPLC-HR-MS/MS analysis; format: ADME, cell-based, Hepatocyte; conditions: 4 h, dose 2-20 µM
[13] = Drug metabolism in Beagle dog hepatocytes assessed as (R)-2-hydroxy-3-propionamido-3,4-dihydro-2H-benzo[e][1,2]oxaborinine-8-carboxylic acid formation at 2 to 20 uM incubated for 240 mins by UPLC-HR-MS/MS analysis; format: ADME, cell-based, Canis lupus familiaris, Hepatocyte; conditions: 4 h, dose 2-20 µM
[14] = Apparent permeability across basolateral to apical side in human Caco-2 cells at 5 uM measured after 2 hrs by LC-MS/MS method; format: ADME, cell-based; conditions: caco-2, 2 h
[15] = Metabolic stability in Beagle dog liver S9 fraction assessed as half life at 3 uM measured after 2 hrs in presence of NADPH by UPLC-MS/MS analysis; format: ADME, subcellular, Canis lupus familiaris; conditions: s9, 2 h
[16] = Metabolic stability in Cynomolgus monkey liver S9 fraction assessed as half life at 3 uM measured after 2 hrs in absence of NADPH by UPLC-MS/MS analysis; format: ADME, subcellular, Macaca fascicularis; conditions: s9, 2 h
[17] = Metabolic stability in Beagle dog intestinal S9 fraction assessed as half life at 3 uM measured after 2 hrs in absence of NADPH by UPLC-MS/MS analysis; format: ADME, subcellular, Canis lupus familiaris, Intestine; conditions: s9, 2 h
[18] = Metabolic stability in Cynomolgus monkey liver S9 fraction assessed as half life at 3 uM measured after 2 hrs in presence of NADPH by UPLC-MS/MS analysis; format: ADME, subcellular, Macaca fascicularis; conditions: s9, 2 h
[19] = Metabolic stability in Sprague-Dawley rat liver S9 fraction assessed as half life at 3 uM measured after 2 hrs in presence of NADPH by UPLC-MS/MS; format: ADME, subcellular; conditions: s9, 2 h
[20] = Drug metabolism in rabbit hepatocytes assessed as (R)-2-hydroxy-3-propionamido-3,4-dihydro-2H-benzo[e][1,2]oxaborinine-8-carboxylic acid formation at 2 to 20 uM incubated for 240 mins by UPLC-HR-MS/MS analysis; format: ADME, cell-based, Oryctolagus cuniculus, Hepatocyte; conditions: 4 h, dose 2-20 µM
[21] = Metabolic stability in Cynomolgus monkey intestinal S9 fraction assessed as half life at 3 uM measured after 2 hrs in absence of NADPH by UPLC-MS/MS analysis; format: ADME, subcellular, Macaca fascicularis, Intestine; conditions: s9, 2 h
[22] = Metabolic stability in CD-1 mouse liver S9 fraction assessed as half life measured at 3 uM after 2 hrs in absence of NADPH by UPLC-MS/MS analysis; format: ADME, subcellular; conditions: s9, 2 h
[23] = Metabolic stability in Beagle dog intestinal S9 fraction assessed as half life at 3 uM measured after 2 hrs in presence of NADPH by UPLC-MS/MS analysis; format: ADME, subcellular, Canis lupus familiaris, Intestine; conditions: s9, 2 h
[24] = Metabolic stability in human plasma assessed as half life at 3 uM measured after 2 hrs by UPLC-MS/MS analysis; format: ADME, cell-free
[25] = Metabolic stability in Sprague-Dawley rat liver S9 fraction assessed as half life at 3 uM measured after 2 hrs in absence of NADPH by UPLC-MS/MS analysis; format: ADME, subcellular; conditions: s9, 2 h
[26] = Drug metabolism in rat hepatocytes assessed as (R)-2-hydroxy-3-propionamido-3,4-dihydro-2H-benzo[e][1,2]oxaborinine-8-carboxylic acid formation at 2 to 20 uM incubated for 240 mins by UPLC-HR-MS/MS analysis; format: ADME, cell-based, Hepatocyte; conditions: 4 h, dose 2-20 µM
[27] = Metabolic stability in human intestinal S9 fraction assessed as half life at 3 uM measured after 2 hrs in absence of NADPH by UPLC-MS/MS analysis; format: ADME, subcellular, Intestine; conditions: s9, 2 h
[28] = Metabolic stability in human intestinal S9 fraction assessed as half life at 3 uM measured after 2 hrs in presence of NADPH by UPLC-MS/MS analysis; format: ADME, subcellular, Intestine; conditions: s9, 2 h
[29] = Efflux ratio of apparent permeability from basolateral to apical side over apical to basolateral side in human Caco-2 cells at 5 uM measured after 2 hrs by LC-MS/MS method; format: ADME, cell-based; conditions: caco-2, 2 h
[30] = Apparent permeability across apical to basolateral side in human Caco-2 cells at 5 uM measured after 2 hrs by LC-MS/MS method; format: ADME, cell-based; conditions: caco-2, 2 h
[31] = Metabolic stability in Sprague-Dawley rat plasma assessed as half life at 3 uM measured after 2 hrs by UPLC-MS/MS analysis; format: ADME, cell-free
[32] = Metabolic stability in CD-1 mouse plasma assessed as half life at 3 uM measured after 2 hrs by UPLC-MS/MS analysis; format: ADME, cell-free

SMILES: CCC(=O)N[C@H]1Cc2cccc(C(=O)OCOC(=O)C(CC)CC)c2OB1O [LEDABORBACTAM ETZADROXIL]
- t1/2 [1]: 1.1 min
- t1/2 [2]: 3.9 min
- t1/2 [3]: 11.2 min
- t1/2 [4]: 0.7 min
- t1/2 [5]: 43.9 min
- Drug metabolism [6]: Metabolite_Detected
- Drug metabolism [7]: Metabolite_Detected
- t1/2 [8]: 22 min
- t1/2 [9]: 1 min
- t1/2 [10]: 4 min
- t1/2 [11]: 1.2 min
- Drug metabolism [12]: Metabolite_Detected
- Drug metabolism [13]: Metabolite_Detected
- Papp [14]: 29.4 10^-6 cm/s
- t1/2 [15]: 0.5 min
- t1/2 [16]: 0.9 min
- t1/2 [17]: 119 min
- t1/2 [18]: 0.8 min
- t1/2 [19]: 2.3 min
- Drug metabolism [20]: Metabolite_Detected
- t1/2 [21]: 10.1 min
- t1/2 [22]: 1.3 min
- t1/2 [23]: 49 min
- t1/2 [24]: 10.7 min
- t1/2 [25]: 2.8 min
- Drug metabolism [26]: Metabolite_Detected
- t1/2 [27]: 3.3 min
- t1/2 [28]: 2.9 min
- Ratio [29]: 3.2
- Papp [30]: 9.22 10^-6 cm/s
- t1/2 [31]: 1.6 min
- t1/2 [32]: 4.6 min

— ChEMBL document CHEMBL5034013, “Discovery of VNRX-7145 (VNRX-5236 Etzadroxil): An Orally Bioavailable β-Lactamase Inhibitor for Enterobacterales Expressing Ambler Class A, C, and D Enzymes” (J Med Chem, 2021)
